Test results as given in patent US8198263B2, “Vitamin D derivatives active on the vitamin D nuclear receptor, preparation and uses thereof” (Centre National de la Recherche Scientifique, priority 2005, dated 2012).
Like-named read-outs stand apart in the source and are kept apart here.

Assays:
[1] = set-up: species or system C57BL/6J mice; conditions: mouse, in vivo, po
Experimental: FIG. 3: Effects of 1α,25(OH)2D3 and new ligands (compounds A and B) on calcium levels in serum. (FIG. 3.1) Mice were fed either with vehicle (sesame oil), 1α,25(OH)2D3 2 μg/kg, 2 μg/kg compound A or 2 μg/kg compound B during 7 days. (FIG. 3.2) Mice were fed either with vehicle (Veh), 1α,25(OH)2D3 (D3), or compound A during 4 days. Data are presented as mean±SEM. Significant differences are marked as *p<0.05, ***p<0.01.
Male C57BL/6J mice, 6-7 weeks of age, were obtained from Charles River Laboratories France (l'Arbresle, France). All mice were maintained in a temperature-controlled (23° C.) facility with a 12 h light/dark cycle and were given free access to food and water. The mice were fed the EQ12310 diet from UAR (Villemoison sur Orge, France), which contained 16.8% protein, 73.5% carbohydrate and 4.8% fat. The different VDR agonists were dissolved in sesame oil and administered by oral gavage at the indicated doses. The mice were fasted 4 h before harvesting blood for subsequent Calcium measurements, which were performed as described (1).
Thereafter a detailed dose response (0.2, 0.5, 1, and 2 μg/kg) was performed with both 1α,25(OH)2D3, and compound A (FIG. 3.2). In this study compounds were gavaged during 4 consecutive days.

human VDR = biological target: T1, human VDR (Homo sapiens, UniProt P11473); assay: Transfection and transactivation assay (GAL4 DBD-VDR LBD, UAS-TATA-luciferase reporter, 293 EBNA cells); format: cell-based; conditions: for VDR agonist character: summary statement
T1 construct: an expression plasmid of GAL4 DBD-VDR LBD; expressed in transfected cells; host or cells: 293 EBNA cells
T1 sequence (P11473 127-423 limits assumed): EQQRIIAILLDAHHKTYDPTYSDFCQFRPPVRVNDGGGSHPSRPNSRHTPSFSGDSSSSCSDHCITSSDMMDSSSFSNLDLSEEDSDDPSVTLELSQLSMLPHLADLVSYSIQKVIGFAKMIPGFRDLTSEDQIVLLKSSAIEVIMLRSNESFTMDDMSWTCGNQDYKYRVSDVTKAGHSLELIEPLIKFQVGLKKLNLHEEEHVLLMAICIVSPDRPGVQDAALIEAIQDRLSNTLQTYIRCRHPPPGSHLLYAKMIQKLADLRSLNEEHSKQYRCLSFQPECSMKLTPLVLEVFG
Excerpt: FIG. 2: Transcriptional activation of VDR by 1α,25(OH)2D3, compound A and compound B. 293 EBNA cells were transiently transfected with a UAS-TATA-luciferase reporter plasmid and an expression plasmid of GAL4 DBD-VDR LBD and subsequently treated with 1α,25(OH)2D3, compound A (A), and compound B (B) at 10^−10 and 10^−9M. Luciferase activity for each sample was normalized to the β-galactosidase activity. Data is shown as fold induction of agonist induced luciferase activity divided by luciferase activity of vehicle.
The human VDR LBD was subcloned into the pG4M derived plasmid as a Gal fusion protein. Transient transfection experiments for the analysis of VDR activation were performed in 48 wells plates, using a standard calcium phosphate coprecipitation technique as described (11). 293 EBNA cells were seeded (6.0×10^4 cells per well) and incubated for 24 hours at 37° C. in medium containing Dulbecco medium (DMEM+1 g/L glucose), 10% FCS, gentamycine and 1 mg/ml G418 (geneticin). 293 EBNA cells were transiently transfected with 12.5 ng of Gal-4-VDR LBD plasmid, 10 ng of UAS-TATA-luciferase reporter plasmid, and 37.5 ng of PCH110 internal control recombinant expressing β-galactoside plasmid. After cells were incubated for 8 hours at 37° C., the medium was replaced and the compounds were added in optimized serial dilutions. After 20 hours at 37° C., cells were washed with PBS and harvested in Passiv lysis buffer (Promega). The cell lysates were assayed for lusiferase and β-galactosidase activity. Luciferase activity for each sample was normalized to β-galactosidase activity. Cells were treated with 1α, 25(OH)2D3, compound A, and compound B. All experiments were performed in duplicates.

| dose at which the effect on serum calcium levels became significant / caused hypercalcemia [1] [µg/kg] | transcriptional activities of human VDR induced, times more efficiently than 1α,25(OH)2D3 (human VDR; at 10^−10 M, 293 EBNA cells, luciferase normalized to β-galactosidase) [times] | VDR agonist character (human VDR) | dose at which the effect on serum calcium levels became significant / caused hypercalcemia ([1]; male, C57BL/6J, 4 days) [µg/kg] | effect on serum calcium levels compared with 1α,25(OH)2D3 [1] | SMILES |
| --- | --- | --- | --- | --- | --- |
| 1 | – | – | – | – | C=C1/C(=C\C=C2/CCC[C@]3(C)[C@@H]([C@H](C)CCCC(C)(C)O)CC[C@@H]23)C[C@@H](O)C[C@@H]1O [1α,25(OH)2D3, reference compound] |
| – | 12 | superagonist activity | 2 | weaker effect on serum calcium levels | C=C1/C(=C\C=C2/CCC[C@@]3(C)[C@H]2CC[C@@H]3[C@]2(C)C[C@H](CC(C)(C)O)CO2)C[C@@H](O)C[C@@H]1O [compound A, (1R,3S,5Z)-5-((E)-2-((1S,3aS,7aS)-hexahydro-1-((2S,4S)-tetrahydro-4-(2-hydroxy-2-methylpropyl)-2-methylfuran-2-yl)-7a-methyl-1H-inden-4(7aH)-ylidene)ethylidene)-4-methylenecyclohexane-1,3-diol] |
| – | – | behaves like 1α,25(OH)2D3 | – | – | C=C1/C(=C\C=C2/CCC[C@@]3(C)[C@H]2CC[C@@H]3[C@]2(C)C[C@@H](CC(C)(C)O)CO2)C[C@@H](O)C[C@@H]1O [compound B, (1R,3S,5Z)-5-((E)-2-((1S,3aS,7aS)-hexahydro-1-((2S,4R)-tetrahydro-4-(2-hydroxy-2-methylpropyl)-2-methylfuran-2-yl)-7a-methyl-1H-inden-4(7aH)-ylidene)ethylidene)-4-methylenecyclohexane-1,3-diol] |
